Experimental data from patent US20120065365A1, “Stable Radiopharmaceutical Compositions and Methods for Their Preparation” (BRACCO IMAGING S.P.A., priority 2003, published 2012).
Where a name gives a salt, the structure may show the parent alone. Read-outs that look alike come from different tables or passages of the source.

Key:
[1] = Radiostability (RCP, Met═O by HPLC) of preformed ^177Lu-A with individual amino acids added (Example 1); assay type: physicochemical; details: amino acid 6.6 mg/mL, room temperature
Protocol: (§1) The injection volume was 20 μL.
Solutions of the individual amino acids L-Methionine, L-Selenomethionine, L-cysteine HCl.H2O, L-Tryptophan, L-Histidine, and Glycine were prepared at a concentration of 10 mg/mL in 10 mM Dulbecco's phosphate-buffered saline, pH 7.0 [PBS].
The final radioactive concentration of each sample was ˜20 mCi/mL.

[2] = ^177Lu-A 50 mCi in 2 mL, room temperature
[3] = assay type: physicochemical; details: stabilizer 5 mg/mL added after complex preparation; for RCP % t = 0 h: ^177Lu-A (3.34 mCi avg per aliquot), analysed 1-3.5 hrs after preparation; for RCP % t = 24 h: ^177Lu-A, room temperature
Protocol: In this study, sulfur-containing compounds were tested. Cysteine has been used as an antioxidant for many drugs that contain oxidizable residues.
Solutions of each individual stabilizer (10 mg/mL) were prepared in water. To a lead-shielded 4-mL vial was added 300 μL of NaOAc buffer (0.2M, pH 4.8), 29.0 mCi ^177LuCl3 and 41.4 μg COMPOUND A (dissolved in water). The ratio of COMPOUND A to Lutetium was 3:1. The reaction mixture was heated, cooled, treated with Na2EDTA.2H2O and analyzed by HPLC as described in Example 13. Seven 50-μL aliquots (3.34 mCi ^177Lu avg each) were transferred to individual HPLC vials. To one aliquot, 50 μL of water was added for use as a control sample (no stabilizer). To the other six aliquots, 50 μL of an individual stabilizer solution (0.5 mg of stabilizer) was added, and then each was analyzed by HPLC (Method 2). The control sample, and L-cysteine ethyl ester hydrochloride and L-cysteine methyl ester hydrochloride samples were analyzed again after 24 hours of storage at room temperature.

[4] = assay type: physicochemical; details: for RCP % t = 0 h: ^177Lu-A (4.80 mCi) prepared in presence of stabilizer 5 mg/mL; for RCP % t = 24 h / RCP % t = 48 h / RCP (%) t = 72 h: ^177Lu-A prepared in presence of stabilizer 5 mg/mL, room temperature
Protocol: Solutions of L-cysteine ethyl ester hydrochloride and L-cysteine methyl ester hydrochloride (5 mg/mL) were prepared by dissolving them in NaOAc buffer (0.2 M, pH 4.8). To lead-shielded 4-mL vials were added 200 μL of the individual NaOAc-stabilizer solutions, 4.80 mCi ^177LuCl3 and 7.26 μg COMPOUND A (dissolved in water). The ratio of COMPOUND A to Lutetium was 3:1 for all samples. The reaction mixtures were heated, cooled, treated with Na2EDTA.2H2O and analyzed by HPLC as described in Example 13, and then each was stored at room temperature for 72 hours. Each sample was analyzed by HPLC (Method 2) at t=0, 24, 48 and 72 h.

[5] = assay type: physicochemical
Protocol: The reaction vial was crimp-sealed and heated at 100° C. for 5 min. […] The sample was stored in an autosampler in which the temperature is ˜6° C. […] than room temperature, and analyzed by RP-HPLC for up to 24 hours.
L-Selenomethionine: ^177Lu-B was prepared, diluted and analyzed as described above, but 5 mg of L-Se-Met was used in place of PDTC, the heating time was 10 minutes, and the quantity of radioactivity used was 52 mCi.
L-cysteine ethyl ester, HCl: ^177Lu-B was prepared, diluted and analyzed as described above, but 5 mg of L-CEE, hydrochloride salt was used in place of PDTC, the heating time was 5 minutes and the quantity of radioactivity used was 50 mCi.
L-cysteine HCl.H2O: ^177Lu-B was prepared, diluted and analyzed as described above, but 5 mg of L-Cys HCl.H2O was used in place of PDTC, the heating time was 8 minutes and the quantity of radioactivity used was 53 mCi.

[6] = assay type: physicochemical; remark: listed apart in the source
Protocol: The ratio of COMPOUND A to Lutetium was 3:1 for all samples. The reaction mixtures were heated, cooled, treated with Na2EDTA.2H2O and analyzed by HPLC as described in Example 13, and then stored at room temperature for 24 hours, at which time all samples were analyzed again.

[7] = assay type: physicochemical; details: ^177Lu-A 13.9 mCi/mL, stabilizer 5 mg/mL added after complex preparation, room temperature
Protocol: as §1
Compounds containing the —C═S moiety [dithiocarbamates and ethionamide] were examined in this study.
Each individual stabilizer was prepared at a concentration of 10 mg/mL in water. Ethionamide was dissolved in EtOH. […] The reaction mixture was heated to 100° C. for 5 minutes, then cooled for 5 minutes in an ambient-temperature water bath. […] To an aliquot, 100 μL of one of the stabilizer solutions (1 mg of stabilizer) was added. Each aliquot was analyzed (t=0 h) by HPLC (Method 2) and stored at room temperature for 48 hours. All samples were analyzed again at t=24 h and 48 h.

[8] = assay type: physicochemical; remark: listed apart in the source
Protocol: as §1
Ethionamide was prepared at a 10 mg/mL concentration by dissolving it in EtOH. […] Another sample was prepared to which was added 100 μL of ethanol only (no stabilizer), for use as a control sample. […] The reaction mixture was heated to 100° C. for 5 minutes then cooled for 5 minutes in an ambient-temperature water bath. To each sample, 10 μL of 2% Na2EDTA.2H2O in water was added, and then each was analysed by HPLC (Method 2) and stored at room temperature for up to 96 hours.

SMILES: CSCC[C@H](N)C(=O)O [L-Methionine]
- 0-1 h RCP (%) ([1]; ^177Lu-A ~20 mCi/mL (3.5 mCi total), 0-1 h): 100%
- 24-h RCP (%) ([1]; ^177Lu-A ~20 mCi/mL, 24 h): 99.3%
- 48-h RCP (%) ([1]; ^177Lu-A ~20 mCi/mL, 48 h): 94%
- % RCP 0-d ([2]; 2.5 mg/mL L-methionine (5 mg), 0 d): 96.1%
- % RCP 1-d ([2]; 2.5 mg/mL L-methionine, 1 d): 53.5%
- % RCP 2-d ([2]; 2.5 mg/mL L-methionine, 2 d): 26.9%
- % RCP 5-d ([2]; 2.5 mg/mL L-methionine, 5 d): 0%

SMILES: CCOC(=O)[C@@H](N)CS [L-cysteine ethyl ester hydrochloride]
- RCP % t = 0 h [3]: 91.5%
- RCP % t = 24 h [3]: 73.2%
- RCP % t = 0 h [4]: 100%
- RCP % t = 24 h [4]: 96.5%
- RCP % t = 48 h [4]: 93.5%
- RCP (%) t = 72 h [4]: 87.4%
- (% RCP) 3-h ([5]; ^177Lu-B (44-53 mCi) formulated with 5 mg stabilizing compound, 3 h): 96.9%
- (% RCP) 6-h ([5]; ^177Lu-B (44-53 mCi) formulated with 5 mg stabilizing compound, 6 h): 94.7%
- (% RCP) 9-h ([5]; ^177Lu-B (44-53 mCi) formulated with 5 mg stabilizing compound, 9 h): 92.8%
- (% RCP) 12-h ([5]; ^177Lu-B (44-53 mCi) formulated with 5 mg stabilizing compound, 12 h): 92.2%
- (% RCP) 24-h ([5]; ^177Lu-B (44-53 mCi) formulated with 5 mg stabilizing compound, 24 h): 85.1%
- (% RCP) 0-h ([5]; ^177Lu-B (44-53 mCi) formulated with 5 mg stabilizing compound, diluted to ~2 mL, ~6° C. above room temperature, 0 h): 98.4%
- RCP Drop over 24 hr ([5]; ^177Lu-B formulated with 5 mg stabilizing compound, 0 to 24 h): 13.3%

SMILES: CCc1cc(C(N)=S)ccn1 [Ethionamide, 2-Ethyl-4-pyridinecarbothioamide (Ethionamide), reference compound]
- RCP % t = 0 h ([6]; ^177Lu-A (4.65-5.64 mCi) prepared in presence of stabilizer 5 mg/mL, 0 h): 80.8%
- RCP % t = 24 h ([6]; ^177Lu-A prepared in presence of stabilizer 5 mg/mL, room temperature, 24 h): 77.5%
- RCP % t = 0 h ([7]; 0 h): 97.4%
- RCP % t = 24 h ([7]; 24 h): 97.0%
- RCP % t = 48 h ([7]; 48 h): 94.7%
- RCP % t = 0 h ([8]; ^177Lu-A (5.25 mCi avg) prepared in presence of stabilizer ~3.33 mg/mL, 0 h): 100%
- RCP % t = 24 h ([8]; ^177Lu-A prepared in presence of stabilizer ~3.33 mg/mL, room temperature, 24 h): 98.1%
- RCP % t = 96 h ([8]; ^177Lu-A prepared in presence of stabilizer ~3.33 mg/mL, room temperature, 96 h): 94.6%

SMILES: Cl.Cl.NCCSSCCN [Cystamine dihydrochloride]
- RCP % t = 0 h [3]: 66.2%

SMILES: CCOC(=O)[C@@H](N)CSSC[C@H](N)C(=O)OCC.Cl.Cl [L-cysteine diethyl ester dihydrochloride]
- RCP % t = 0 h [3]: 61.5%

SMILES: COC(=O)[C@@H](N)CSSC[C@H](N)C(=O)OC.Cl.Cl
- RCP % t = 0 h [3]: 70.1%

SMILES: COC(=O)[C@@H](N)CS [L-cysteine methyl ester hydrochloride]
- RCP % t = 0 h [3]: 90.4%
- RCP % t = 24 h [3]: 74.4%
- RCP % t = 0 h [4]: 100%
- RCP % t = 24 h [4]: 97.1%
- RCP % t = 48 h [4]: 93.7%
- RCP (%) t = 72 h [4]: 87.2%

SMILES: N[C@@H](CS(=O)O)C(=O)O.O [L-cysteinesulfinic acid monohydrate]
- RCP % t = 0 h [3]: 75.0%
